Reference: US8809341B2, “2,4-pyrimidinediamine compounds and uses as anti-proliferative agents” (Rigel Pharmaceuticals, Inc., priority 2003, dated 2014)
Like-named read-outs stand apart in the source and are kept apart here.

Legend:
Format in all cases: cell-based
[1] = test system: A549 cells; assay: in vitro antiproliferation assay, A549 (lung); settings: A549 (lung) cells
Summary of the method: (§1)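 Standard in vitro antiproliferation assays on tumour cell lines, including A549 and H1299 (both lung); IC50 values determined.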

[2] = test system: HCT116; assay: in vitro antiproliferation assay, HCT116 (colon)
Method: (§2) The IC50 values of various compounds against a various different tumor cell lines were determined using standard in vitro antiproliferation assays. The tumor cell lines tested were as follows: A549 (lung); H1299 (lung), ACHN (kidney/p53 wt), CAKI (renal cell carcinoma), NCI-H460 (lung); HCT116 (colon/p53w0; HELA (cervix/p53 wt), HUH7 (liver/p53 wt), HUVEC (primary endothelial), LNCAP (prostate), HT-29 (colon); MCF-7 (breast); MCF-7 (breast/ER positive), MDA MB435S (breast); MDA MB231 (breast/ER negative), DU145 (prostate); BxPC-3 (pancreatic); SKOV-3 (ovarian); HepG2 (hepatic), NDHF primary normal human dermal fibroblast), SKMEL28 (breast/p53mut), SKMEL5 (breast/p53 wt), U20S (bone) and PC3 (prostate). […] A blank indicates the specified compound was not tested against the specified cell line.
(§3) Many of the compounds were tested against other cell lines. Their activity is reported in TABLE 15, below, where +”, “−”, “−/+” or “+/−” values are as described for TABLES 1-14. Where the cell line includes a value in a parenthetical, the value indicates the seeding density at which the assay was performed

[3] = test system: PC3; assay: in vitro antiproliferation assay, PC3 (prostate)
Method: as §2, §3

[4] = test system: H1299 cells; assay: in vitro antiproliferation assay, H1299 (lung); settings: H1299 (lung) cells
Summary of the method: as §1

[5] = Table 7, in vitro antiproliferation
[6] = HCT116 (colon), read-out: HCT116
[7] = Table 7, in vitro antiproliferation, colon cells, read-out: HTC116

Row | Structure (SMILES) | IC50 [1, 5] | IC50 [2, 6] | IC50 ([1]; in vitro antiproliferation) | further results
1 | O=C(c1cc2cc(Nc3ncc(F)c(Nc4cccc(O)c4)n3)ccc2o1)N1CCNCC1 [compound 633] | ≤ 20 µM | ≤ 20 µM | – | IC50 [2, 7]: ≤ 20 µM
2 | COC(=O)c1cc2cc(Nc3ncc(F)c(Nc4cccc(O)c4)n3)ccc2o1 [compound 636] | ≤ 20 µM | > 20 µM | – | IC50 [2, 7]: > 20 µM
3 | CNC(=O)c1cc2cc(Nc3ncc(F)c(Nc4ccc(C(C)(C)C)cc4)n3)ccc2o1 [compound 642] | – | – | – | IC50 [3]: ≤ 20 µM
4 | CN(C)C(=O)c1cc2cc(Nc3ncc(F)c(Nc4cccc(O)c4)n3)ccc2o1 [compound 643] | > 20 µM | – | – | IC50 [3]: > 20 µM
5 | CCOC(=O)c1cc2cccc(Nc3ncc(F)c(Nc4ccc5c(c4)OCCO5)n3)c2[nH]1 [compound 647] | ≤ 20 µM | ≤ 20 µM | – | IC50 [2, 7]: ≤ 20 µM
6 | CCOC(=O)c1cc2cccc(Nc3ncc(F)c(Nc4cccc(O)c4)n3)c2[nH]1 [compound 648] | ≤ 20 µM | – | – | IC50 [2, 7]: ≤ 20 µM
7 | COC(=O)c1cc2cc(Nc3ncc(F)c(Nc4ccc(Cl)cc4)n3)ccc2o1 [compound 651] | > 20 µM | > 20 µM | – | –
8 | COC(=O)c1cc2cc(Nc3ncc(F)c(Nc4ccc(Cl)c(Cl)c4)n3)ccc2o1 [compound 652] | > 20 µM | > 20 µM | – | –
9 | COc1cc(Nc2nc(Nc3cccc4cc(C(=O)N(C)CCO)[nH]c34)ncc2F)cc(OC)c1 [compound 659] | ≤ 20 µM | – | – | IC50 [2, 7]: ≤ 20 µM; IC50 [4, 5]: ≤ 20 µM
10 | COc1cc(Nc2nc(Nc3cccc4cc(C(=O)NC(C)(C)CO)[nH]c34)ncc2F)cc(OC)c1 [compound 660] | ≤ 20 µM | – | – | IC50 [2, 7]: ≤ 20 µM; IC50 [4, 5]: ≤ 20 µM
11 | CCOC(=O)c1cc2cccc(Nc3ncc(F)c(NCCO)n3)c2[nH]1 [compound 667] | > 20 µM | – | – | IC50 [2, 7]: > 20 µM; IC50 [4, 5]: > 20 µM
12 | COC(=O)c1cc2cc(Nc3ncc(F)c(Nc4ccc5c(c4)NC(=O)C(F)(F)O5)n3)ccc2o1 [compound 676] | ≤ 20 µM | – | – | IC50 [3]: ≤ 20 µM
13 | COC(=O)c1cc2cc(Nc3ncc(F)c(Nc4ccc5c(c4)NC(=O)C(C)(C)O5)n3)ccc2o1 [compound 677] | ≤ 20 µM | > 20 µM | – | IC50 [2, 7]: > 20 µM
14 | CNC(=O)COc1cccc(Nc2ncc(F)c(Nc3ccc(OC(F)(F)F)c(Cl)c3)n2)c1 [compound 699] | – | – | ≤ 20 µM | IC50 [3]: > 20 µM
15 | COc1ccc(Nc2ncc(F)c(Nc3ccc(OC)c(OC)c3)n2)cc1OC [compound 710] | – | ≤ 20 µM | ≤ 20 µM | –
16 | Fc1cnc(Nc2cccc(Cl)c2)nc1Nc1cccc(Cl)c1 [compound 717] | – | > 20 µM | ≤ 20 µM | –
17 | CNC(=O)COc1cccc(Nc2ncc(F)c(Nc3cccc(O)c3)n2)c1 [compound 732] | – | ≤ 20 µM | ≤ 20 µM | –
18 | Oc1ccc(Nc2ncc(F)c(Nc3ccc(O)c(F)c3)n2)cc1F [compound 742] | – | – | – | IC50 [3]: ≤ 20 µM
19 | Oc1cccc(Nc2ncc(F)c(Nc3ccc(OCCN4CCOCC4)cc3)n2)c1 [compound 746] | – | – | > 20 µM | IC50 [3]: > 20 µM
20 | CNC(=O)COc1cccc(Nc2ncc(F)c(Nc3cccc(OC)c3)n2)c1 [compound 755] | – | ≤ 20 µM | ≤ 20 µM | –
21 | O=C(COc1cccc(Nc2ncc(F)c(Nc3cccc(O)c3)n2)c1)N1CCNCC1 [compound 761] | – | – | – | IC50 [3]: > 20 µM
22 | COc1cc(Nc2ncc(F)c(Nc3cc(OC)cc(OC)c3)n2)cc(OC)c1 [compound 839] | – | ≤ 20 µM | ≤ 20 µM | –
23 | Cc1cc(C)cc(Nc2ncc(F)c(Nc3cc(C)cc(C)c3)n2)c1 [compound 841] | – | ≤ 20 µM | ≤ 20 µM | IC50 ([4]; in vitro antiproliferation): ≤ 20 µM
24 | COc1cc(Nc2nc(Nc3cc(C)c(C)c(C)c3)ncc2F)cc(OC)c1 [compound 845] | – | ≤ 20 µM | ≤ 20 µM | IC50 ([4]; in vitro antiproliferation): ≤ 20 µM
25 | COc1cc(Nc2nc(Nc3cc(Cl)cc(Cl)c3)ncc2F)cc(OC)c1 [compound 847] | – | ≤ 20 µM | ≤ 20 µM | –
26 | COc1cc(Nc2nc(Nc3cc(C)cc(C(F)(F)F)c3)ncc2F)cc(OC)c1 [compound 848] | – | ≤ 20 µM | ≤ 20 µM | –
27 | COCCOc1cccc(Nc2ncc(F)c(Nc3cc(O)c(O)c(OCCOC)c3)n2)c1 [compound 933] | – | ≤ 20 µM | – | IC50 ([1]; antiproliferation): ≤ 20 µM; IC50 ([4]; antiproliferation): ≤ 20 µM
28 | CNC(=O)COc1cccc(Nc2ncc(F)c(Nc3cc(C)c(O)c(Cl)c3)n2)c1 [compound 991] | – | ≤ 20 µM | – | IC50 ([1]; antiproliferation): ≤ 20 µM
